Data reported in the supplement of paper PMC10307832.

How the values were obtained:
Assay in all cases: relative viability (nuclei count vs DMSO), 5 days (fraction); higher = more cells survive
H3255 = tested on: H3255
Outline: (§1)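 After 5 days of treatment, lung cancer cells in 1536-well plates were fixed and stained in a single step (final 0.05% Triton X-100, 1% formaldehyde, 1 ug/ml Hoechst) and their nuclei counted on 4× images. Treatment had been applied by pin tool the day after seeding as one drug alone or as a fixed anchor-drug dose with five library-drug doses (not always all listed) in √10 steps. Relative viability is the nuclei count of treated wells divided by that of vehicle wells, and values are medians of duplicate plates.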

PC-14 = tested on: PC-14
Outline: as §1

NCI-H2023 = tested on: NCI-H2023
Outline: as §1

SW 1573 = tested on: SW 1573
Outline: as §1

LXF-289 = tested on: LXF-289
Outline: as §1

NCI-H322M = tested on: NCI-H322M
Outline: as §1

NCI-H727 = tested on: NCI-H727
Outline: as §1

NCI-H2126 = tested on: NCI-H2126
Outline: as §1

SK-LU-1 = tested on: SK-LU-1
Outline: as §1

NCI-H2009 = tested on: NCI-H2009
Outline: as §1

EMC-BAC-2 = tested on: EMC-BAC-2
Outline: as §1

NCI-H2085 = tested on: NCI-H2085
Outline: as §1

NCI-H1993 = tested on: NCI-H1993
Outline: as §1

NCI-H2342 = tested on: NCI-H2342
Outline: as §1

NCI-H1563 = tested on: NCI-H1563
Outline: as §1

NCI-H2347 = tested on: NCI-H2347
Outline: as §1

EPLC-272H = tested on: EPLC-272H
Outline: as §1

NCI-H1650 = tested on: NCI-H1650
Outline: as §1

NCI-H1915 = tested on: NCI-H1915
Outline: as §1

LCLC-97TM1 = tested on: LCLC-97TM1
Outline: as §1

NCI-H647 = tested on: NCI-H647
Outline: as §1

NCI-H661 = tested on: NCI-H661
Outline: as §1

HOP-62 = tested on: HOP-62
Outline: as §1

For `C=C1C(=O)O[C@@H](CCCCCCCC)[C@@H]1C(=O)O` [C-75] + N=C(N)NC(=N)NCCc1ccccc1 [Phenformin] (partner 250 µM), the relative viability (H3255; first compound 0.08 µM) was 0.345, the relative viability (H3255; first compound 0.253 µM) was 0.352 and the relative viability (H3255; first compound 0.8 µM) was 0.392. It also gave a relative viability (H3255; first compound 2.53 µM) of 0.337, a relative viability (H3255; first compound 8 µM) of 0.331 and a relative viability (PC-14; first compound 0.08 µM) of 0.469. It also gave a relative viability (PC-14; first compound 0.253 µM) of 0.516, a relative viability (PC-14; first compound 0.8 µM) of 0.479 and a relative viability (PC-14; first compound 2.53 µM) of 0.549. The relative viability (PC-14; first compound 8 µM) was 0.526, the relative viability (NCI-H2023; first compound 0.08 µM) was 0.394 and the relative viability (NCI-H2023; first compound 0.253 µM) was 0.502. For the same compound, the relative viability (NCI-H2023; first compound 0.8 µM) was 0.367, the relative viability (NCI-H2023; first compound 2.53 µM) was 0.384 and the relative viability (NCI-H2023; first compound 8 µM) was 0.372. The relative viability (SW 1573; first compound 0.08 µM) was 0.462, the relative viability (SW 1573; first compound 0.253 µM) was 0.351 and the relative viability (SW 1573; first compound 0.8 µM) was 0.376. The relative viability (SW 1573; first compound 2.53 µM) was 0.381, the relative viability (SW 1573; first compound 8 µM) was 0.244 and the relative viability (LXF-289; first compound 0.08 µM) was 0.504. It also gave a relative viability (LXF-289; first compound 0.253 µM) of 0.543, a relative viability (LXF-289; first compound 0.8 µM) of 0.514 and a relative viability (LXF-289; first compound 2.53 µM) of 0.452. The relative viability (LXF-289; first compound 8 µM) was 0.507, the relative viability (NCI-H322M; first compound 0.08 µM) was 0.749 and the relative viability (NCI-H322M; first compound 0.253 µM) was 0.886. For the same compound, the relative viability (NCI-H322M; first compound 0.8 µM) was 0.781, the relative viability (NCI-H322M; first compound 2.53 µM) was 0.718 and the relative viability (NCI-H322M; first compound 8 µM) was 0.789. It also gave a relative viability (NCI-H727; first compound 0.08 µM) of 0.62, a relative viability (NCI-H727; first compound 0.253 µM) of 0.879 and a relative viability (NCI-H727; first compound 0.8 µM) of 0.537. It also gave a relative viability (NCI-H727; first compound 8 µM) of 0.65, a relative viability (NCI-H2126; first compound 0.08 µM) of 0.505 and a relative viability (NCI-H2126; first compound 0.253 µM) of 0.558. The relative viability (NCI-H2126; first compound 0.8 µM) was 0.501, the relative viability (NCI-H2126; first compound 2.53 µM) was 0.48 and the relative viability (NCI-H2126; first compound 8 µM) was 0.515. It also gave a relative viability (SK-LU-1; first compound 0.08 µM) of 0.52, a relative viability (SK-LU-1; first compound 0.253 µM) of 0.524 and a relative viability (SK-LU-1; first compound 0.8 µM) of 0.515. For the same compound, the relative viability (SK-LU-1; first compound 2.53 µM) was 0.425, the relative viability (SK-LU-1; first compound 8 µM) was 0.423 and the relative viability (NCI-H2009; first compound 0.08 µM) was 0.487. It also gave a relative viability (NCI-H2009; first compound 0.253 µM) of 0.534, a relative viability (NCI-H2009; first compound 0.8 µM) of 0.448 and a relative viability (NCI-H2009; first compound 2.53 µM) of 0.427. For the same compound, the relative viability (NCI-H2009; first compound 8 µM) was 0.422, the relative viability (EMC-BAC-2; first compound 0.08 µM) was 0.58 and the relative viability (EMC-BAC-2; first compound 0.253 µM) was 0.478. For the same compound, the relative viability (EMC-BAC-2; first compound 0.8 µM) was 0.48, the relative viability (EMC-BAC-2; first compound 2.53 µM) was 0.42 and the relative viability (EMC-BAC-2; first compound 8 µM) was 0.448. The relative viability (NCI-H2085; first compound 0.08 µM) was 0.827, the relative viability (NCI-H2085; first compound 0.253 µM) was 0.693 and the relative viability (NCI-H2085; first compound 0.8 µM) was 0.629. For the same compound, the relative viability (NCI-H2085; first compound 2.53 µM) was 0.63, the relative viability (NCI-H2085; first compound 8 µM) was 0.67 and the relative viability (NCI-H1993; first compound 0.08 µM) was 0.528. For the same compound, the relative viability (NCI-H1993; first compound 0.253 µM) was 0.574, the relative viability (NCI-H1993; first compound 0.8 µM) was 0.476 and the relative viability (NCI-H1993; first compound 2.53 µM) was 0.46. The relative viability (NCI-H1993; first compound 8 µM) was 0.506, the relative viability (NCI-H2342; first compound 0.08 µM) was 0.542 and the relative viability (NCI-H2342; first compound 0.253 µM) was 0.634. The relative viability (NCI-H2342; first compound 0.8 µM) was 0.664, the relative viability (NCI-H2342; first compound 2.53 µM) was 0.512 and the relative viability (NCI-H2342; first compound 8 µM) was 0.524. For the same compound, the relative viability (NCI-H1563; first compound 0.08 µM) was 0.656, the relative viability (NCI-H1563; first compound 0.253 µM) was 0.64 and the relative viability (NCI-H1563; first compound 0.8 µM) was 0.655. It also gave a relative viability (NCI-H1563; first compound 2.53 µM) of 0.63, a relative viability (NCI-H1563; first compound 8 µM) of 0.691 and a relative viability (NCI-H2347; first compound 0.08 µM) of 0.506. For the same compound, the relative viability (NCI-H2347; first compound 0.253 µM) was 0.599, the relative viability (NCI-H2347; first compound 0.8 µM) was 0.401 and the relative viability (NCI-H2347; first compound 8 µM) was 0.379. For the same compound, the relative viability (EPLC-272H; first compound 0.08 µM) was 0.33, the relative viability (EPLC-272H; first compound 0.253 µM) was 0.281 and the relative viability (EPLC-272H; first compound 0.8 µM) was 0.276. For the same compound, the relative viability (EPLC-272H; first compound 2.53 µM) was 0.28, the relative viability (EPLC-272H; first compound 8 µM) was 0.271 and the relative viability (NCI-H1650; first compound 0.08 µM) was 0.47. The relative viability (NCI-H1650; first compound 0.253 µM) was 0.502, the relative viability (NCI-H1650; first compound 2.53 µM) was 0.448 and the relative viability (NCI-H1650; first compound 8 µM) was 0.491. The relative viability (NCI-H1915; first compound 0.08 µM) was 0.361, the relative viability (NCI-H1915; first compound 0.253 µM) was 0.375 and the relative viability (NCI-H1915; first compound 0.8 µM) was 0.368. The relative viability (NCI-H1915; first compound 2.53 µM) was 0.318, the relative viability (NCI-H1915; first compound 8 µM) was 0.325 and the relative viability (LCLC-97TM1; first compound 0.08 µM) was 0.421. The relative viability (LCLC-97TM1; first compound 0.253 µM) was 0.487, the relative viability (LCLC-97TM1; first compound 0.8 µM) was 0.355 and the relative viability (LCLC-97TM1; first compound 2.53 µM) was 0.372. It also gave a relative viability (LCLC-97TM1; first compound 8 µM) of 0.431, a relative viability (NCI-H647; first compound 0.08 µM) of 0.52 and a relative viability (NCI-H647; first compound 0.253 µM) of 0.58. It also gave a relative viability (NCI-H647; first compound 0.8 µM) of 0.417, a relative viability (NCI-H647; first compound 2.53 µM) of 0.374 and a relative viability (NCI-H647; first compound 8 µM) of 0.382. For the same compound, the relative viability (NCI-H661; first compound 0.08 µM) was 0.313, the relative viability (NCI-H661; first compound 0.253 µM) was 0.271 and the relative viability (NCI-H661; first compound 0.8 µM) was 0.296. It also gave a relative viability (NCI-H661; first compound 2.53 µM) of 0.237, a relative viability (NCI-H661; first compound 8 µM) of 0.288 and a relative viability (HOP-62; first compound 0.08 µM) of 0.691. For the same compound, the relative viability (HOP-62; first compound 0.253 µM) was 0.718, the relative viability (HOP-62; first compound 0.8 µM) was 0.647 and the relative viability (HOP-62; first compound 2.53 µM) was 0.616. For the same compound, the relative viability (HOP-62; first compound 8 µM) was 0.601.
